# Assays:
# SR = test: Growth inhibition of human SR cells at 10 uM relative to control; assay type: functional; conditions: read-out: GI
# HOP-62 = test: Growth inhibition of human HOP-62 cells at 10 uM relative to control; assay type: functional; conditions: read-out: GI
# HCT-15 = test: Growth inhibition of human HCT-15 cells at 10 uM relative to control; assay type: functional; conditions: read-out: GI
# UACC-62 = test: Growth inhibition of human UACC-62 cells at 10 uM relative to control; assay type: functional; conditions: read-out: GI
# COLO 205 = test: Growth inhibition of human COLO 205 cells at 10 uM relative to control; assay type: functional; conditions: read-out: GI
# U-251 = test: Growth inhibition of human U-251 cells at 10 uM relative to control; assay type: functional; conditions: read-out: GI
# OVCAR-8 = test: Growth inhibition of human OVCAR-8 cells at 10 uM relative to control; assay type: functional; conditions: read-out: GI
# DU-145 = test: Growth inhibition of human DU-145 cells at 10 uM relative to control; assay type: functional; conditions: read-out: GI
# KM12 = test: Growth inhibition of human KM12 cells at 10 uM relative to control; assay type: functional; conditions: read-out: GI
# SN12C = test: Growth inhibition of human SN12C cells at 10 uM relative to control; assay type: functional; conditions: read-out: GI
# T47D = test: Growth inhibition of human T47D cells at 10 uM relative to control; assay type: functional; conditions: read-out: GI
# NCI/ADR-RES = test: Growth inhibition of human NCI/ADR-RES cells at 10 uM relative to control; assay type: functional; conditions: read-out: GI
# UO-31 = test: Growth inhibition of human UO-31 cells at 10 uM relative to control; assay type: functional; conditions: read-out: GI
# Malme-3M = test: Growth inhibition of human Malme-3M cells at 10 uM relative to control; assay type: functional; conditions: read-out: GI
# Hs-578T = test: Growth inhibition of human Hs-578T cells at 10 uM relative to control; assay type: functional; conditions: read-out: GI
# CAKI-1 = test: Growth inhibition of human CAKI-1 cells at 10 uM relative to control; assay type: functional; conditions: read-out: GI
# NCI-H23 = test: Growth inhibition of human NCI-H23 cells at 10 uM relative to control; assay type: functional; conditions: read-out: GI
# MDA-MB-231 = test: Growth inhibition of human MDA-MB-231 cells at 10 uM relative to control; assay type: functional; conditions: read-out: GI
# HOP-92 = test: Growth inhibition of human HOP-92 cells at 10 uM relative to control; assay type: functional; conditions: read-out: GI
# SK-MEL-28 = test: Growth inhibition of human SK-MEL-28 cells at 10 uM relative to control; assay type: functional; conditions: read-out: GI
# ACHN = test: Growth inhibition of human ACHN cells at 10 uM relative to control; assay type: functional; conditions: read-out: GI
# SNB-19 = test: Growth inhibition of human SNB-19 cells at 10 uM relative to control; assay type: functional; conditions: read-out: GI
# SW-620 = test: Growth inhibition of human SW-620 cells at 10 uM relative to control; assay type: functional; conditions: read-out: GI
# SK-OV-3 = test: Growth inhibition of human SK-OV-3 cells at 10 uM relative to control; assay type: functional; conditions: read-out: GI
# SF-295 = test: Growth inhibition of human SF-295 cells at 10 uM relative to control; assay type: functional; conditions: read-out: GI
# MDA-MB-468 = test: Growth inhibition of human MDA-MB-468 cells at 10 uM relative to control; assay type: functional; conditions: read-out: GI
# HT-29 = test: Growth inhibition of human HT-29 cells at 10 uM relative to control; assay type: functional; conditions: read-out: GI
# RPMI-8226 = test: Growth inhibition of human RPMI-8226 cells at 10 uM relative to control; assay type: functional; conditions: read-out: GI
# UACC-257 = test: Growth inhibition of human UACC-257 cells at 10 uM relative to control; assay type: functional; conditions: read-out: GI
# OVCAR-4 = test: Growth inhibition of human OVCAR-4 cells at 10 uM relative to control; assay type: functional; conditions: read-out: GI
# NCI-H226 = test: Growth inhibition of human NCI-H226 cells at 10 uM relative to control; assay type: functional; conditions: read-out: GI
# IGROV-1 = test: Growth inhibition of human IGROV-1 cells at 10 uM relative to control; assay type: functional; conditions: read-out: GI
# HL-60(TB) = test: Growth inhibition of human HL-60(TB) cells at 10 uM relative to control; assay type: functional; conditions: read-out: GI
# PC-3 = test: Growth inhibition of human PC-3 cells at 10 uM relative to control; assay type: functional; conditions: read-out: GI
# MOLT-4 = test: Growth inhibition of human MOLT-4 cells at 10 uM relative to control; assay type: functional; conditions: read-out: GI
# SF-268 = test: Growth inhibition of human SF-268 cells at 10 uM relative to control; assay type: functional; conditions: read-out: GI
# RXF 393 = test: Growth inhibition of human RXF 393 cells at 10 uM relative to control; assay type: functional; conditions: read-out: GI
# M14 = test: Growth inhibition of human M14 cells at 10 uM relative to control; assay type: functional; conditions: read-out: GI
# SK-MEL-2 = test: Growth inhibition of human SK-MEL-2 cells at 10 uM relative to control; assay type: functional; conditions: read-out: GI
# OVCAR-5 = test: Growth inhibition of human OVCAR-5 cells at 10 uM relative to control; assay type: functional; conditions: read-out: GI
# HCC 2998 = test: Growth inhibition of human HCC 2998 cells at 10 uM relative to control; assay type: functional; conditions: read-out: GI
# LOX IMVI = test: Growth inhibition of human LOX IMVI cells at 10 uM relative to control; assay type: functional; conditions: read-out: GI
# A549 = test: Growth inhibition of human A549 cells at 10 uM relative to control; assay type: functional; conditions: read-out: GI
# SK-MEL-5 = test: Growth inhibition of human SK-MEL-5 cells at 10 uM relative to control; assay type: functional; conditions: read-out: GI
# NCI-H322M = test: Growth inhibition of human NCI-H322M cells at 10 uM relative to control; assay type: functional; conditions: read-out: GI
# MCF7 = test: Growth inhibition of human MCF7 cells at 10 uM relative to control; assay type: functional; conditions: read-out: GI
# NCI-H460 = test: Growth inhibition of human NCI-H460 cells at 10 uM relative to control; assay type: functional; conditions: read-out: GI
# DNA = test: Displacement of methyl green from DNA (unknown origin) assessed as DNA intercalation after 24 hrs by colorimetric assay; assay type: nucleic-acid assay
# A498 = test: Growth inhibition of human A498 cells at 10 uM relative to control; assay type: functional; conditions: read-out: GI
# SF-539 = test: Growth inhibition of human SF-539 cells at 10 uM relative to control; assay type: functional; conditions: read-out: GI
# SNB-75 = test: Growth inhibition of human SNB-75 cells at 10 uM relative to control; assay type: functional; conditions: read-out: GI
# BT-549 = test: Growth inhibition of human BT-549 cells at 10 uM relative to control; assay type: functional; conditions: read-out: GI
# NCI-H522 = test: Growth inhibition of human NCI-H522 cells at 10 uM relative to control; assay type: functional; conditions: read-out: GI
# CCRF-CEM = test: Growth inhibition of human CCRF-CEM cells at 10 uM relative to control; assay type: functional; conditions: read-out: GI
# K562 = test: Growth inhibition of human K562 cells at 10 uM relative to control; assay type: functional; conditions: read-out: GI
# MDA-MB-435 = test: Growth inhibition of human MDA-MB-435 cells at 10 uM relative to control; assay type: functional; conditions: read-out: GI
# HCT-116 = test: Growth inhibition of human HCT-116 cells at 10 uM relative to control; assay type: functional; conditions: read-out: GI
# TK-10 = test: Growth inhibition of human TK-10 cells at 10 uM relative to control; assay type: functional; conditions: read-out: GI
# 786-0 = test: Growth inhibition of human 786-0 cells at 10 uM relative to control; assay type: functional; conditions: read-out: GI
structure (smiles),measurement,setting,value
CC1=CSC2=NC(/C=C/c3cccs3)=CC(c3cccs3)N12 (centres undefined),inhibition of growth at 10 µM,SR,< 10%
same,inhibition of growth at 10 µM,HOP-62,< 10%
same,inhibition of growth at 10 µM,HCT-15,< 10%
same,inhibition of growth at 10 µM,UACC-62,< 10%
same,inhibition of growth at 10 µM,COLO 205,< 10%
same,inhibition of growth at 10 µM,U-251,< 10%
same,inhibition of growth at 10 µM,OVCAR-8,< 10%
same,inhibition of growth at 10 µM,DU-145,< 10%
same,inhibition of growth at 10 µM,KM12,< 10%
same,inhibition of growth at 10 µM,SN12C,< 10%
same,inhibition of growth at 10 µM,T47D,< 10%
same,inhibition of growth at 10 µM,NCI/ADR-RES,< 10%
same,inhibition of growth at 10 µM,UO-31,< 10%
same,inhibition of growth at 10 µM,Malme-3M,< 10%
same,inhibition of growth at 10 µM,Hs-578T,< 10%
same,inhibition of growth at 10 µM,CAKI-1,< 10%
same,inhibition of growth at 10 µM,NCI-H23,< 10%
same,inhibition of growth at 10 µM,MDA-MB-231,< 10%
same,inhibition of growth at 10 µM,HOP-92,< 10%
same,inhibition of growth at 10 µM,SK-MEL-28,< 10%
same,inhibition of growth at 10 µM,ACHN,< 10%
same,inhibition of growth at 10 µM,SNB-19,< 10%
same,inhibition of growth at 10 µM,SW-620,< 10%
same,inhibition of growth at 10 µM,SK-OV-3,< 10%
same,inhibition of growth at 10 µM,SF-295,< 10%
same,inhibition of growth at 10 µM,MDA-MB-468,< 10%
same,inhibition of growth at 10 µM,HT-29,< 10%
same,inhibition of growth at 10 µM,RPMI-8226,< 10%
same,inhibition of growth at 10 µM,UACC-257,< 10%
same,inhibition of growth at 10 µM,OVCAR-4,< 10%
same,inhibition of growth at 10 µM,NCI-H226,< 10%
same,inhibition of growth at 10 µM,IGROV-1,< 10%
same,inhibition of growth at 10 µM,HL-60(TB),< 10%
same,inhibition of growth at 10 µM,PC-3,< 10%
same,inhibition of growth at 10 µM,MOLT-4,< 10%
same,inhibition of growth at 10 µM,SF-268,< 10%
same,inhibition of growth at 10 µM,RXF 393,< 10%
same,inhibition of growth at 10 µM,M14,< 10%
same,inhibition of growth at 10 µM,SK-MEL-2,< 10%
same,inhibition of growth at 10 µM,OVCAR-5,< 10%
same,inhibition of growth at 10 µM,HCC 2998,< 10%
same,inhibition of growth at 10 µM,LOX IMVI,< 10%
same,inhibition of growth at 10 µM,A549,< 10%
same,inhibition of growth at 10 µM,SK-MEL-5,< 10%
same,inhibition of growth at 10 µM,NCI-H322M,< 10%
same,inhibition of growth at 10 µM,MCF7,< 10%
same,inhibition of growth at 10 µM,NCI-H460,< 10%
same,IC50,DNA,39.82 µg/mL
same,inhibition of growth at 10 µM,A498,< 10%
same,inhibition of growth at 10 µM,SF-539,< 10%
same,inhibition of growth at 10 µM,SNB-75,< 10%
same,inhibition of growth at 10 µM,BT-549,< 10%
same,inhibition of growth at 10 µM,NCI-H522,13.3%
same,inhibition of growth at 10 µM,CCRF-CEM,< 10%
same,inhibition of growth at 10 µM,K562,< 10%
same,inhibition of growth at 10 µM,MDA-MB-435,< 10%
same,inhibition of growth at 10 µM,HCT-116,< 10%
same,inhibition of growth at 10 µM,TK-10,< 10%
same,inhibition of growth at 10 µM,786-0,< 10%
